Measured values taken from ChEMBL document CHEMBL1909046, “DrugMatrix in vitro pharmacology data”.
pIC50, pKi: −log10 of the molar value.

Assays:
D(1A) dopamine receptor = D(1A) dopamine receptor (Homo sapiens, UniProt P21728); assay: DRUGMATRIX: Dopamine D1 radioligand binding (ligand: [3H] SCH-23390); type: cell membranes, CHO, Membrane; settings: cho; Not Active = under 50% inhibition at 10 µM
Glucocorticoid receptor = target: T1, Glucocorticoid receptor (Homo sapiens, UniProt P04150); settings: hela s3; also: in other assays of this panel Not Active means under 50% inhibition at 10 µM
T1 sequence (P04150 whole entry): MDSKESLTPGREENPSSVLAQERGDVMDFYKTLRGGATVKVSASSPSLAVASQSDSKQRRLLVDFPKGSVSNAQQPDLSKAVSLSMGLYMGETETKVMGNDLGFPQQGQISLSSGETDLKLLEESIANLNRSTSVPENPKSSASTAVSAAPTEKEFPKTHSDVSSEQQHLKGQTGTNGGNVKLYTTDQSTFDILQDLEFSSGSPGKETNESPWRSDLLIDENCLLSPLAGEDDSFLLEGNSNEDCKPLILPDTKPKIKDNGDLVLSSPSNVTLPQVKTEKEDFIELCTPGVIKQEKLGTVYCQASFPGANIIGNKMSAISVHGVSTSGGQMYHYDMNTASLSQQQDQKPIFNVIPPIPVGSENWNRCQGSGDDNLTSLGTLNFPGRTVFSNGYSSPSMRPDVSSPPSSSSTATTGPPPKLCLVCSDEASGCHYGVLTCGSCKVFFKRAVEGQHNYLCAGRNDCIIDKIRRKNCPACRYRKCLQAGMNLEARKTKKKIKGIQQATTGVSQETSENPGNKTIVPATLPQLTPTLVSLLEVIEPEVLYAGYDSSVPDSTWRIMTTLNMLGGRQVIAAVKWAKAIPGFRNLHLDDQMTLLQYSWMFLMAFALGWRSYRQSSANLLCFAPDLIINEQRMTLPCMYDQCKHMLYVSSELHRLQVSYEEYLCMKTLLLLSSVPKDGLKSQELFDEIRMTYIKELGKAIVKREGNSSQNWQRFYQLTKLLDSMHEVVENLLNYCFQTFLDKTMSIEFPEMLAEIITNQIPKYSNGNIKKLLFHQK

[1] = target: T2, Type-2 angiotensin II receptor (Homo sapiens, UniProt P50052); type: cell-based; settings: cho-k1; also: in other assays of this panel Not Active means under 50% inhibition at 10 µM
T2 sequence (P50052 whole entry): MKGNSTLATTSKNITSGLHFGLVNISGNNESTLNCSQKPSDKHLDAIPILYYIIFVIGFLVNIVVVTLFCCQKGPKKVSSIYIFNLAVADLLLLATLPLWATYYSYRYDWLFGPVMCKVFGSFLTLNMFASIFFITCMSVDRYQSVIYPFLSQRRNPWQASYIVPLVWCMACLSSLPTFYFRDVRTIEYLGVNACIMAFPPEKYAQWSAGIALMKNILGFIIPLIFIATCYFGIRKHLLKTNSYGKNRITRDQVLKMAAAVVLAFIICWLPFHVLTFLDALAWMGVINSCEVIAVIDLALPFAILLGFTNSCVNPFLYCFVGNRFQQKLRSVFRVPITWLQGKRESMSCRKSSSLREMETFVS

[2] = target: C-C chemokine receptor type 2 (Homo sapiens, UniProt P41597); type: cell membranes, CHO-K1, Membrane; settings: cho-k1; also: in other assays of this panel Not Active means under 50% inhibition at 10 µM
Chain of C-C chemokine receptor type 2 (P41597 whole entry): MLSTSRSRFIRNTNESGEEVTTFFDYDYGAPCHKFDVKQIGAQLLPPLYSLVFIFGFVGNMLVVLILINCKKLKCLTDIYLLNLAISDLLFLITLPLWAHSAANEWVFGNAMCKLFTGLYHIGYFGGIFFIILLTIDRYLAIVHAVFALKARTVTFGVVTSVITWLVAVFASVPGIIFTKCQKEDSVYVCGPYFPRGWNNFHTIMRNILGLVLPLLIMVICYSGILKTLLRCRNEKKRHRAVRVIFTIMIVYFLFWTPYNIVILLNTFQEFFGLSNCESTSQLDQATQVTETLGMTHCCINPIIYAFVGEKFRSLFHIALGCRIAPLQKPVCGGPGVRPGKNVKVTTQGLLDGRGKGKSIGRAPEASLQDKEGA

Neutrophil elastase = target: T3, Neutrophil elastase (Homo sapiens, UniProt P08246); type: tissue-based;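 also: inhibition of neutrophil elastase enzyme activity, measured with a p-nitroanilide-linked peptide substrate; in other assays of this panel Not Active means under 50% inhibition at 10 µM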
T3 sequence (P08246 whole entry): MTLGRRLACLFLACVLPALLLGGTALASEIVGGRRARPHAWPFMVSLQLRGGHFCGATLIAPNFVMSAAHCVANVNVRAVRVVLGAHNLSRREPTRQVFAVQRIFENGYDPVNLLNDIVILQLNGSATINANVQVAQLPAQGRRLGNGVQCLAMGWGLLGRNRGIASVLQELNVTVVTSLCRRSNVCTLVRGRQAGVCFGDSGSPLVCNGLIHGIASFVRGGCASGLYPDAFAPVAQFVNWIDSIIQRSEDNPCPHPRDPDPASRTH

[3] = DRUGMATRIX: Glutamate, Kainate radioligand binding (ligand: [3H] Kainic acid); type: cell membranes, Rattus norvegicus, Wistar, Brain, Membrane; settings: Not Active = under 50% inhibition at 10 µM
Calcitonin receptor = target: T4, Calcitonin receptor (Homo sapiens, UniProt P30988); type: cell membranes, Membrane; settings: t47d; also: in other assays of this panel Not Active means under 50% inhibition at 10 µM
T4 sequence (P30988 whole entry): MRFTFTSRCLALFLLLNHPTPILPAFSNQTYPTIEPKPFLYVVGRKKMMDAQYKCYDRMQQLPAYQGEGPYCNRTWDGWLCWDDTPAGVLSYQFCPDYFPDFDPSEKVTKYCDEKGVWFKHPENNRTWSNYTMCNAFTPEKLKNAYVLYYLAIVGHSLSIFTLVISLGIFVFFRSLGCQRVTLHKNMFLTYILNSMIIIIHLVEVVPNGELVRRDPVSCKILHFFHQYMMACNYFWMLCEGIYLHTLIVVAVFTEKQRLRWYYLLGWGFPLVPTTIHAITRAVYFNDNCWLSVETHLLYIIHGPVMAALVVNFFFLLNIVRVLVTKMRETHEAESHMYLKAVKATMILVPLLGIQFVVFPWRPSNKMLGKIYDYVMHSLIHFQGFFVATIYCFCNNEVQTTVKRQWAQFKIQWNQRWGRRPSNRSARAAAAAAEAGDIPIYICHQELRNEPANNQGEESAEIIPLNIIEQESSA

[4] = DRUGMATRIX: Serotonin (5-Hydroxytryptamine) 5-HT3 radioligand binding (ligand: [3H] GR-65630); type: cell membranes, Membrane; settings: hek293, Not Active = under 50% inhibition at 10 µM

Chain of D(1A) dopamine receptor (P21728 whole entry): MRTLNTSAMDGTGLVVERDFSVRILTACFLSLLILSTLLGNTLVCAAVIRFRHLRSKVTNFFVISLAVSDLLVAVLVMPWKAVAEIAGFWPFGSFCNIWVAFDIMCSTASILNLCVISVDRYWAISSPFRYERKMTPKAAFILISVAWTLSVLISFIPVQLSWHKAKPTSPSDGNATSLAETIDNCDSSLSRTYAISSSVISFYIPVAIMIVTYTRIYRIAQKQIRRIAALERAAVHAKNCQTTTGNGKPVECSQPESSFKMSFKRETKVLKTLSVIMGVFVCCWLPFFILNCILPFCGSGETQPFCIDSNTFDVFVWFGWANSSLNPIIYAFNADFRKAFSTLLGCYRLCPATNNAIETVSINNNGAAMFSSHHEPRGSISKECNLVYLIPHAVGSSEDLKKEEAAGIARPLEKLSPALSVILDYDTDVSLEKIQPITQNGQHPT

Compound | IC50 (D(1A) dopamine receptor) | IC50 (Glucocorticoid receptor) | IC50 [1] | IC50 [2] | IC50 (Neutrophil elastase) | IC50 [3] | Ki [3] | IC50 (Calcitonin receptor) | IC50 [4] | Ki [4] | Ki (D(1A) dopamine receptor) | Ki (Glucocorticoid receptor) | Ki [1] | Ki [2] | Ki (Neutrophil elastase) | Ki (Calcitonin receptor) | pIC50 ([4]; read-out: IC50) | pKi ([4]; read-out: Ki)
CC(C)CN(C[C@@H](O)[C@H](Cc1ccccc1)NC(=O)O[C@H]1CCOC1)S(=O)(=O)c1ccc(N)cc1 | Not Active | Not Active | Not Active | Not Active | Not Active | Not Active | Not Active | Not Active | Not Active | Not Active |  |  |  |  |  |  |  | 
c1ccc(Nc2ccc(Nc3ccccc3)cc2)cc1 | Not Active | Not Active | Not Active | Not Active | Not Active | Not Active | Not Active | Not Active | Not Active | Not Active |  |  |  |  |  |  |  | 
NC(=O)N1c2ccccc2CCc2ccccc21 | Not Active | Not Active | Not Active | Not Active | Not Active | Not Active | Not Active | Not Active | Not Active | Not Active |  |  |  |  |  |  |  | 
O=C1CC[C@@H](N2C(=O)c3ccccc3C2=O)C(=O)N1 | Not Active | Not Active | Not Active | Not Active | Not Active | Not Active | Not Active | Not Active | Not Active | Not Active |  |  |  |  |  |  |  | 
Cc1onc(O)c1CC(N)C(=O)O (racemic) [(R,S)-AMPA] | Not Active | Not Active | Not Active | Not Active | Not Active | Not Active | Not Active | Not Active | Not Active | Not Active |  |  |  |  |  |  |  | 
Cc1ccc2cc3c(ccc4ccccc43)c3c2c1CC3 [3-METHYLCHOLANTHRENE] | Not Active | Not Active | Not Active | Not Active | Not Active | Not Active | Not Active | Not Active | Not Active | Not Active |  |  |  |  |  |  |  | 
CC[C@@]1(O)C[C@H](O[C@H]2C[C@H](N(C)C)[C@H](O[C@H]3C[C@H](O)[C@H](O[C@H]4CCC(=O)[C@H](C)O4)[C@H](C)O3)[C@H](C)O2)c2c(cc3c(c2O)C(=O)c2c(O)cccc2C3=O)[C@H]1C(=O)OC [ACLARUBICIN] | Not Active | Not Active | Not Active | Not Active | Not Active | Not Active | Not Active | Not Active | Not Active | Not Active |  |  |  |  |  |  |  | 
Nc1nc2c(ncn2COCCO)c(=O)[nH]1 [ACYCLOVIR] | Not Active | Not Active | Not Active | Not Active | Not Active | Not Active | Not Active | Not Active | Not Active | Not Active |  |  |  |  |  |  |  | 
Cc1c(C)c2c(c(C)c1O)CC[C@@](C)(CCC[C@H](C)CCC[C@H](C)CCCC(C)C)O2 [ALPHA-TOCOPHEROL] | Not Active | Not Active | Not Active | Not Active | Not Active | Not Active | Not Active | Not Active | Not Active | Not Active |  |  |  |  |  |  |  | 
CN(C)c1nc(N(C)C)nc(N(C)C)n1 [ALTRETAMINE] | Not Active | Not Active | Not Active | Not Active | Not Active | Not Active | Not Active | Not Active | Not Active | Not Active |  |  |  |  |  |  |  | 
Nc1c(Br)cc(Br)cc1CN[C@H]1CC[C@H](O)CC1 [AMBROXOL] | Not Active | Not Active | Not Active | Not Active | Not Active | Not Active | Not Active | Not Active | Not Active | Not Active |  |  |  |  |  |  |  | 
NCCCCCC(=O)O [AMINOCAPROIC ACID] | Not Active | Not Active | Not Active | Not Active | Not Active | Not Active | Not Active | Not Active | Not Active | Not Active |  |  |  |  |  |  |  | 
CCC1(c2ccc(N)cc2)CCC(=O)NC1=O (stereo not drawn) [AMINOGLUTETHIMIDE] | Not Active | Not Active | Not Active | Not Active | Not Active | Not Active | Not Active | Not Active | Not Active | Not Active |  |  |  |  |  |  |  | 
Cc1ccc(/N=C/N(C)/C=N/c2ccc(C)cc2C)c(C)c1 [AMITRAZ] | Not Active | Not Active | Not Active | Not Active | Not Active | Not Active | Not Active | Not Active | Not Active | Not Active |  |  |  |  |  |  |  | 
CCOC(=O)C1=C(COCCN)NC(C)=C(C(=O)OC)C1c1ccccc1Cl (stereo not drawn) [AMLODIPINE] | Not Active | Not Active | Not Active | Not Active | Not Active | Not Active | Not Active | Not Active | Not Active | Not Active |  |  |  |  |  |  |  | 
COc1ccc(C[C@H]2NC[C@H](O)[C@H]2OC(C)=O)cc1 [ANISOMYCIN] | Not Active | Not Active | Not Active | Not Active | Not Active | Not Active | Not Active | Not Active | Not Active | Not Active | Not Active | Not Active | Not Active | Not Active | Not Active | Not Active |  | 
CN(C)CCCN1c2ccccc2Sc2ccc(Cl)cc21 [CHLORPROMAZINE] |  | Not Active | Not Active | Not Active | Not Active | Not Active | Not Active | Not Active |  |  |  |  |  |  |  |  | 5.13 | 5.78
CCCCc1nc(Cl)c(CO)n1Cc1ccc(-c2ccccc2-c2nnn[nH]2)cc1 [LOSARTAN] | Not Active | Not Active | Not Active |  | Not Active | Not Active | Not Active | Not Active | Not Active | Not Active |  |  |  |  |  |  |  | 
CCCN1C[C@H](CSC)C[C@@H]2c3cccc4[nH]cc(c34)C[C@H]21 [PERGOLIDE] |  | Not Active | Not Active | Not Active | Not Active | Not Active | Not Active | Not Active | Not Active | Not Active |  |  |  |  |  |  |  | 
